The record followed here is patent US9884063B2, “Amido-substituted azole compounds” (Bayer Pharma Aktiengesellschaft, priority 2014, dated 2018).

Where only a bound is given, the exact number is not on record here.

In the test the target is T1, TNKS2 (Homo sapiens, UniProt Q9H2K2).
T1 sequence (Q9H2K2 1-1166): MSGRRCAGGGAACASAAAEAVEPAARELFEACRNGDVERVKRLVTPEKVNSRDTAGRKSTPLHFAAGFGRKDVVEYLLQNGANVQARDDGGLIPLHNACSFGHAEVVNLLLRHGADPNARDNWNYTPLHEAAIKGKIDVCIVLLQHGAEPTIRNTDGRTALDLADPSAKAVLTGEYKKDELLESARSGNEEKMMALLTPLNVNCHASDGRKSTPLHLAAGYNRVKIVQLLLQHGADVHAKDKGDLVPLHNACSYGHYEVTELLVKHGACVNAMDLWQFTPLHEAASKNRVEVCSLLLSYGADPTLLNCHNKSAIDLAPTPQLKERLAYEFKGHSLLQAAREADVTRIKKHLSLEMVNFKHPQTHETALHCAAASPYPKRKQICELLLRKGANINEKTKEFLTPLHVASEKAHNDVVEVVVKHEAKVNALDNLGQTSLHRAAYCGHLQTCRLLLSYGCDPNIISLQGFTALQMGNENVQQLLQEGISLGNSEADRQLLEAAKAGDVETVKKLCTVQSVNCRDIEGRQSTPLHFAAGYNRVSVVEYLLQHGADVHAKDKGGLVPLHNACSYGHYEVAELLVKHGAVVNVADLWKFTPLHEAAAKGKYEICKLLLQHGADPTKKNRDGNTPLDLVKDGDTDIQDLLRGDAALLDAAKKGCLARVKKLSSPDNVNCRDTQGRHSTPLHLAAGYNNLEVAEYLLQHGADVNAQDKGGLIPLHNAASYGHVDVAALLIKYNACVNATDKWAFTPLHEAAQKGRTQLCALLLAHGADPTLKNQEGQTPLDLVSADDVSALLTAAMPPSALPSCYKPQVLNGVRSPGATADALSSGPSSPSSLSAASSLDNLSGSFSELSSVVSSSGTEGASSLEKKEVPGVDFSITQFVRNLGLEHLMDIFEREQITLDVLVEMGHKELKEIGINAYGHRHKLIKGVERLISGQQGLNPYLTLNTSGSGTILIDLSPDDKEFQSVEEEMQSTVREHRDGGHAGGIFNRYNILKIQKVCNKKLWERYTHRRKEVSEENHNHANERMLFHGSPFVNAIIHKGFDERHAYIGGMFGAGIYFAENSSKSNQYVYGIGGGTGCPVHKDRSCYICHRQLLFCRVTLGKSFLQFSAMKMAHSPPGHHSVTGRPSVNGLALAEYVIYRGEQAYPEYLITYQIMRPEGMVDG
Kind of test: Modified TNKS2 Assay 3 (BPS kit #80578, biotin-NAD+, 96 well). The settings on record: human TNKS2, BPS kit #80578, 96 well. Format: biochemical. The procedure, abridged: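 Commercial kit assay measuring TNKS2-catalysed incorporation of biotin-labelled NAD+ into a protein substrate, detected by streptavidin-HRP chemiluminescence. Run per manufacturer's protocol; IC50 is the concentration halving the normalised signal.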
`O=C(Nc1ccc(NC(=O)c2[nH]cnc2C(=O)NC2CC2)cc1)c1cc(F)c(F)cc1Cl` [Example 51, N^5-{4-[(2-chloro-4,5-difluorobenzoyl)amino]phenyl}-N^4-cyclopropyl-1H-imidazole-4,5-dicarboxamide] displayed a 50% inhibitory concentration (IC50) of 10 nM. `CC(CN1CCOCC1)NC(=O)c1[nH]cnc1C(=O)Nc1ccc(NC(=O)c2ccc(F)cc2Cl)cc1` (single isomer, unassigned; enantiomer 2) [Example 270, N^4-{4-[(2-chloro-4-fluorobenzoyl)amino]phenyl}-N^5-[1-(morpholin-4-yl)propan-2-yl]-1H-imidazole-4,5-dicarboxamide (enantiomer 2)]: the IC50 was determined as 10 nM. The value for `O=C(Nc1ccc(NC(=O)c2[nH]cnc2C(=O)N2CC3(COC3)C2)cc1)c1cc(F)c(F)cc1Cl` [Example 52, N-{4-[(2-chloro-4,5-difluorobenzoyl)amino]phenyl}-4-(2-oxa-6-azaspiro[3.3]hept-6-ylcarbonyl)-1H-imidazole-5-carboxamide] was 250 nM. The value for `C[C@@H]1CCCCN1CCNC(=O)c1[nH]cnc1C(=O)Nc1ccc(NC(=O)c2ccc(F)cc2Cl)cc1` [Example 267, N^4-{4-[(2-chloro-4-fluorobenzoyl)amino]phenyl}-N^5-{2-[(2R)-2-methylpiperidin-1-yl]ethyl}-1H-imidazole-4,5-dicarboxamide] was < 0.5 nM. The value for `CNC(=O)c1nc[nH]c1C(=O)Nc1ccc(NC(=O)c2ccc(F)cc2Br)cc1` [Example 56, N^5-{4-[(2-bromo-4-fluorobenzoyl)amino]phenyl}-N^4-methyl-1H-imidazole-4,5-dicarboxamide] was 60 nM; that for `O=C(Nc1ccc(NC(=O)c2[nH]cnc2C(=O)NCCN2CCCCC2)cc1)c1ccc(F)cc1Cl` [Example 32, N^4-{4-[(2-chloro-4-fluorobenzoyl)amino]phenyl}-N^5-[2-(piperidin-1-yl)ethyl]-1H-imidazole-4,5-dicarboxamide] was 1 nM. `Cc1nc(C(=O)Nc2ccc(NC(=O)c3ccc(F)cc3Cl)cc2)c(C(=O)NCCN2CCCCC2)[nH]1` [Example 67, N^4-{4-[(2-chloro-4-fluorobenzoyl)amino]phenyl}-2-methyl-N^5-[2-(piperidin-1-yl)ethyl]-1H-imidazole-4,5-dicarboxamide] gave an IC50 of 5 nM. The compound `CNC(=O)c1nc[nH]c1C(=O)Nc1ccc(NC(=O)c2ccc(F)cc2I)cc1` [Example 61, N^5-{4-[(4-fluoro-2-iodobenzoyl)amino]phenyl}-N^4-methyl-1H-imidazole-4,5-dicarboxamide] displayed an IC50 of 3 nM. For the compound `CN(C)CCNC(=O)c1nc[nH]c1C(=O)Nc1ccc(NC(=O)c2ccc(F)cc2Cl)cc1` [Example 22, N^4-{4-[(2-chloro-4-fluorobenzoyl)amino]phenyl}-N^5-[2-(dimethylamino)ethyl]-1H-imidazole-4,5-dicarboxamide], half-maximal inhibition (IC50) required 10 nM.

In turn, `CNC(=O)c1nc[nH]c1C(=O)Nc1ccc(NC(=O)c2ccc(S(C)(=O)=O)cc2Cl)cc1` [Example 55, N^5-(4-{[2-chloro-4-(methylsulfonyl)benzoyl]amino}phenyl)-N^4-methyl-1H-imidazole-4,5-dicarboxamide] had a 50% inhibitory concentration (IC50) of 10 nM.

For the compound `C[C@@H]1CCCN(CCNC(=O)c2[nH]cnc2C(=O)Nc2ccc(NC(=O)c3ccc(F)cc3Cl)cc2)C1` [Example 278, N^4-{4-[(2-chloro-4-fluorobenzoyl)amino]phenyl}-N^5-{2-[(3R)-3-methylpiperidin-1-yl]ethyl}-1H-imidazole-4,5-dicarboxamide], the half-inhibitory concentration (IC50) was 1 nM.

One may read the IC50 as the concentration that gives 50% inhibition. Higher therefore signals weaker potency in that assay.
